In patent publication US12723235B2, “Method for expanding hepatocyte in vitro and application” (Center for Excellence in Molecular Cell Science, Chinese …, priority 2018, dated 2026):
Like-named read-outs stand apart in the source and are kept apart here.

Legend:
[1] = tested on: ProliHHs; assay: In vitro hepatic maturation induction of ProliHHs (3D culture, 10 days; morphology, gene expression, CYP2B6 and urea metabolism); conditions: components added to HM to give HIM
Source text: (§1) The fully grown proliferating human hepatocytes are trypsinized and re-suspended in the hepatocyte medium, and seeded in a non-attached 24-well plate (Elplasia, Japan) at 5*10^5 cells/well. One day later, the medium was replaced with the hepatocyte induction medium, and the cells will slowly aggregate into cell spheres. The medium was changed every 2 days, and the induced cells were collected 10 days after the induction.
(§2) • 1) Extract cellular RNA by Trizol (Invitrogen) or RNeasy FFPE Kit (Qiagen). • 2) Obtain cDNA by M-MLV reverse transcriptase (Promega) kit, using 1 μg Trizol-extracted RNA, or 1 μg or all (according to the particular amount) of the RNA extracted by RNeasy FFPE Kit. • 3) Perform real-time quantitative PCR using SYBR Premix Ex Taq kit (TaKaRa), and detect expression of genes with ABI StepOnePlus real-time PCR system (Applied Biosystems). All Q-PCR data were performed with at least 2 repeats.
(§3) For detecting urea secretion ability of the cultured cells, supernatants of cell culture were collected after 24-hour culture and analyzed by urea assay kit (Abnova) according to its protocol.
(§4) For measurement of CYP2B6 metabolism activity of the proliferating human hepatocytes, cells subjected 10 days of hepatic induction and freshly resuscitated human hepatocytes were incubated respectively in a medium containing 100 um bupropion. Supernatants of cell culture were present to RILD Liver Company to detect the production of CYP2B6 metabolites using mass spectrometry. Standard curves were drawn using commercially purchased standards.

[2] = tested on: human hepatocytes; assay: Expansion of human hepatocytes in HM medium with, without or with replaced Wnt signaling pathway agonist (6 days); assay type: cell-based; conditions: 50 ng/ml Wnt3a purified protein or CHIR 0.1 μM
Source text: A. Cell photographs of human hepatocytes cultured for 6 days in: HM medium containing Wnt3a conditioned medium, HM medium without Wnt3a conditioned medium, HM medium containing Wnt3a purified protein instead of Wnt3a conditioned medium, and HM medium containing CHIR instead of Wnt3a conditioned medium.
B. Fold of expansion of human hepatocytes cultured for 6 days in: HM medium containing Wnt3a conditioned medium, HM medium without Wnt3a conditioned medium, HM medium containing Wnt3a purified protein instead of Wnt3a conditioned medium, and HM medium containing CHIR instead of Wnt3a conditioned medium.
Cryopreserved human liver cells were purchased from Celsis In Vitro Technologies (Baltimore, MD, U.S.). The cryopreserved human hepatocytes were resuscitated in DMEM medium containing 10% serum, and seeded in a collagen-I-coated plate at 2*10^4 cells/cm^2. The culture plate was incubated at 37° C. in a 5% CO2, 5% O2 incubator. The medium was changed to the hepatocyte medium one day after seeding and every 3 days thereafter. After 6 days of culture, the fully grown cells were trypsinized and seeded in a collagen-I-coated plate at 3*10^4 cells/cm^2. The culture plate was incubated at 37° C. in a 5% CO2 and 5% O2 incubator.
The HM medium contains a variety of growth factors and small molecule compounds.

[3] = tested on: ProliHHs
Source text: as §1, §2, §3, §4

Molecule	role in hepatic maturation medium (metabolic maturation, inhibition of progenitor gene expression) [1]	cell morphology and expansion fold compared with Wnt3a conditioned medium [2]	expansion of human hepatocytes when replacing Wnt3a conditioned medium in HM medium [2]	role in hepatic maturation medium (metabolic maturation, inhibition of progenitor gene expression) [3]
C=C[C@@]1(C)CC(=O)[C@]2(O)[C@@]3(C)[C@@H](O)CCC(C)(C)[C@@H]3[C@H](O)[C@H](OC(C)=O)[C@@]2(C)O1 [Forskolin]	key factors	–	–	–
Cc1c[nH]c(-c2cnc(NCCNc3ccc(C#N)cn3)nc2-c2ccc(Cl)cc2Cl)n1 [CHIR, CHIR99021]	–	similar	could be expanded	–
C[C@@H]1C[C@H]2[C@@H]3CCC4=CC(=O)C=C[C@]4(C)[C@@]3(F)[C@@H](O)C[C@]2(C)[C@@]1(O)C(=O)CO [DEX, Dexamethasone]	–	–	–	key factors
Oncostatin M [OSM]	–	–	–	key factors
Wnt3a purified protein: Purified Wnt3a protein, Wnt signaling pathway agonist (stemimmune LLC) (protein, UniProt P56704 19-352, looked up) Protein Wnt-3a: SYPIWWSLAVGPQYSSLGSQPILCASIPGLVPKQLRFCRNYVEIMPSVAEGIKIGIQECQHQFRGRRWNCTTVHDSLAIFGPVLDKATRESAFVHAIASAGVAFAVTRSCAEGTAAICGCSSRHQGSPGKGWKWGGCSEDIEFGGMVSREFADARENRPDARSAMNRHNNEAGRQAIASHMHLKCKCHGLSGSCEVKTCWWSQPDFRAIGDFLKDKYDSASEMVVEKHRESRGWVETLRPRYTYFKVPTERDLVYYEASPNFCEPNPETGSFGTRDRTCNVSSHGIDGCDLLCCGRGHNARAERRREKCRCVFHWCCYVSCQECTRVYDVHTCK	–	similar	could be expanded	–
